Reference: a compilation of properties of binary mixtures (doi:10.1016/j.fluid.2022.113414)

Test: xn = mol fraction of the nth substance listed
Settings: 101.3 kPa

CC(=O)[O-].CN1CCCN2CCC[NH+]=C12 + O
viscosity [mPa·s]
Settings	x1 = 0.103	x1 = 0.206	x1 = 0.301	x1 = 0.405	x1 = 0.494	x1 = 0.604
278.2 K	46	329	945	–	2689	3358
283.2 K	–	–	554	1023.1	–	1825.2
288.2 K	24.1	131.4	340	609	873	1046.1
293.2 K	18.1	87.9	217.7	–	533	629
298.2 K	13.9	61.2	–	244.9	–	396
303.2 K	10.9	43.9	–	164.9	224.5	–
308.2 K	8.77	–	–	114.8	153.9	176.1
313.2 K	7.19	24.72	–	82.4	–	123.6
318.2 K	5.94	19.23	–	60.6	–	89.4
323.2 K	4.99	15.23	30	45.8	59.3	–
328.2 K	4.24	12.3	23.57	35.39	45.37	50.43
333.2 K	3.65	–	18.81	27.89	35.43	39.17
338.2 K	3.15	8.44	15.29	22.37	–	31.03
343.2 K	–	7.12	12.65	18.24	22.81	25.01
348.2 K	2.45	6.08	10.59	15.11	18.74	20.47
353.2 K	2.19	5.25	–	12.66	15.61	16.99
358.2 K	–	–	7.69	10.74	13.17	–
363.2 K	1.78	4	6.66	9.21	11.24	–
368.2 K	–	3.54	5.83	7.98	9.68	–
373.2 K	–	3.17	–	6.97	8.42	–
